We go through two molecules from patent publication US6472541B2, “Protecting groups with increased photosensitivities” (The Regents of the University of California, priority 1998, dated 2002).

Data set [1] can be described thus: One-photon photolysis quantum efficiency (UV irradiation, HPLC analysis). The conditions noted are these: 365 nm. The class given is physicochemical. The method, then: (§1) The electronic absorption and emission properties of the compounds were measured and the stability of the compounds toward hydrolysis in the dark was tested. Stability in the dark can be used to help identify photolabile protecting groups that can be used in a variety of different conditions. Specifically, the quantum efficiencies for one-photon excitation and rates of hydrolysis in the dark were determined.
[…] The duration of each irradiation period was controlled by an electronic shutter. Between each irradiation, a small aliquot (10 μL) of the solution was removed for analysis by reversed phase HPLC with a Betabasic-18 column eluted with a isocratic mixture of 60% acetonitrile and water containing 0.1% trifluoracetic acid at a flow rate of 0.8 mL/min, using absorbance detection at 325 nm. […] […] Quantum efficiencies were calculated as (Iσt90%)^−1, where I is the irradiation intensity in einsteins (cm^−2s^−1), σ is the decadic extinction coefficient in cm^2mol^−1 (10^3 times ε, the usual extinction coefficient in M^−1cm^−1), and t90% is the irradiation time in seconds for 90% conversion to product. […] Dark hydrolysis rates were measured similarly except without illumination.

A short description of data set [2]: Electronic absorption and emission properties. The class given is physicochemical. The method, then: Generally, chemicals and solvents were used directly as received unless otherwise noted. Acetonitrile, chloroform and dichloromethane were dried over 4A molecular sieves. Proton magnetic resonance spectra (^1H NMR) were recorded on a Gemini 200 MHz spectrometer (Varian; Palo Alto, Calif.) and reported in ppm (δ) downfield from tetramethylsilane with residual solvent peaks as the internal standards. Ultraviolet spectra were recorded on a Cary 3E UV-Visible spectrophotometer (Varian, Palo Alto, Calif., USA). Fluorescence spectra were recorded on a Fluorolog spectrofluorometer (SPEX; Edison, N.J., USA). Mass spectra were recorded on a electrospray mass spectrometer (5989B, Hewlett-Packard; Palo Alto, Calif., USA). Thin layer chromatography (TLC) and column chromatography were performed on precoated silica gel 60F-254 plates and 230-400 mesh silica gel 60 respectively (EM Separations; Gibbstown, N.J., USA). All manipulations of compounds sensitive to near ultraviolet light were performed under an orange safety lamp.
as §1

In data set [3] the test system is rat cortical neurons. Briefly: One-photon UV uncaging of caged glutamate on brain slices, neuronal responses. The class given is cell-based. Conditions: one-photon UV uncaging at 365 nm, 10 mW, average. The method, then:
The photolabile protecting groups can be uncaged by one-photon or two-photon photolysis. One-photon ultraviolet uncaging experiments were carried out on brain slices. In particular, compound 7 was used to deliver glutamate to rat cortical neurons. One-photon UV uncaging of caged glutamate compound at 365 nm released the glutamate. Neuronal responses were measured after directly stimulating cells as described in Sawatari and Callaway, Nature 380:442-446 (1996). The cells were exposed to compound 7 (Bhc-Glu) or γ-(α-carboxy-2-nitrobenzyl)glutamate, trifluoroacetate salt (compound 1, CNB-glutamate). The one-photon uncaging was carried out as described in FIG. 1 depicts the lower power needed to uncage compound 7 (Bhc-Glu) in the neuron sample in comparison to compound 1 (alpha-carboxy nitrobenzyl-caged glutamate, CNB-Glu). At 10 mW the compound 7-stimulated neurons respond, on average, at amplitudes 80% of their maximum, while compound 1-stimulated neurons are responding at less than 20% of their maximum amplitudes.

For data set [4], the system named is brain slices. Briefly: Two-photon infrared uncaging on brain slices, whole-cell recordings.
Protocol: A map was created where the brightness at each picture element was proportional to the maximum current recorded with the laser focused at that position.
Two-photon infrared uncaging on brain slices was also carried out. […] The stream of pulses from the Ti:sapphire laser was raster-scanned across cell bodies and dendrites.
Data set [5] is described as follows: In vitro measurements of two-photon uncaging and fluorescence cross-sections. The class given is physicochemical. Conditions: pH 7.2. The method, then:
Measurements of cross-sections for two-photon uncaging were carried out in microcuvettes with cylindrical cavities having a 1 cm path length and 20 μL total volume (Type 26F, Starna). Femtosecond infrared pulses from a mode-locked titanium-sapphire laser (Spectra-Physics TSUNAMI, pumped by a Spectra-Physics MILLENNIUM) were aimed along the axis of the sample chamber and focused in its center with a 25 mm focal length lens (06LXP003/076, Melles Griot, Irvine, Calif.) optimized for infrared lasers. The pulse parameters were estimated by replacing the caged compound by a solution of fluorescein, a reference compound of known fluorescence quantum yield Qf2 (0.9) and two-photon absorbance cross-section δaF (30 and 38 GM at 740 and 800 nm respectively). The time-averaged fluorescence <F(t)>collected by the detector is given by equation (1)
<F(t)>=0.5φQf2δaFCF<I0^2(t)>∫S^2(r)dV (1)
where φ is the collection efficiency of the detector, CF is the concentration of fluorescein, <I0^2(t)> is the mean squared light intensity, S(r) is a unitless spatial distribution function, and the integral is over the volume of the microcuvette. The fluorescence emitted at right angles to the laser beam was measured through a 535 nm bandpass filter in front of a silicon photodiode radiometer (IL1700, International Light). The collection efficiency φ was estimated as Ay/(4πR^2n^2), where A is the area of the detector (0.38 cm^2), y is the fraction of the integrated emission spectrum transmitted by the interference filter (0.377), measured separately in a spectrofluorometer, R is the distance from the center of the cuvette to the detector (3.83 cm), and n is the refractive index of water (1.333). For photolysis of a caged compound or substrate, the number NP of molecules of product formed per unit time is (eq. 2):
NP=0.5Qu2δaSCS<I0^2(t)>∫S^2(r)dV (2)
where Qu2, δaS, and CS are the quantum efficiency for two-photon uncaging, absorbance cross-section, and concentration of the substrate, respectively. NP was measured by HPLC sampling of the microcuvette as for the one-photon photolysis. The uncaging action cross-section δu2 (≡Qu2δaS) can therefore be estimated by (eq. 3): [formula]
Similarly, when the substrate is also fluorescent, its two-photon fluorescence action cross-section δf2S (≡Qf2SδaS) can be estimated as (eq. 4): [formula]
Here the subscripts S and F distinguish values for the substrate and for the fluorescein reference. If one assumes that one- and two-photon quantum efficiencies are the same, then δu2/Qu1 and δf2S/Qf1S should both equal δaS. In fact, the former values are typically about twice the latter. All of them are directly proportional to the assumed value of Qf2 for fluorescein.

Assay in data set [6]: as above
The class given is physicochemical. Conditions: measured at 780 nm on an independent apparatus.

Data set [7] can be described thus: Mechanism of photolysis (triplet state lifetime). The class given is physicochemical. From the text:
The halogenated coumarin derivatives have good dark stability, and high one-photon and two-photon uncaging efficiencies. Without being bound to any particular theory, halogenation of the coumarin may have increased the two-photon cross-sections by lowering the pKa of the chromophore below physiological pH and promoting formation of the more strongly absorbing anion. Also, the heavy atoms may promote intersystem crossing to the triplet, which is believed to be the photochemically reactive state. […] The mechanism of photolysis of compound 7 and compound 23 indicate that the solvolysis occurs via the triplet state with a lifetime of about 1 μs. […] Although compound 6 had the highest cross-section, its photolysis was complicated by multiple secondary photoproducts. The monobromo compound (compound 5) was much more tractable and easily formed caged compounds.

The structures appear in SMILES notation. Structures can show the parent of a compound that is named as a salt. Marks after values point to notes of the source that are not given here.

Regarding `NC(CCC(=O)OC(C(=O)O)c1ccccc1[N+](=O)[O-])C(=O)O` (stereo not drawn) [Compound 1, γ-(α-carboxy-2-nitrobenzyl)glutamate, trifluoroacetate salt, reference compound], in data set [1], the “Qu1 Quantum efficiency for uncaging with one-photon excitation at 365 nm” value is listed as 0.14; the “εQu1 One-photon action cross section (product of molar absorptivity and photolysis quantum yield) at 365 nm” value is 25 M⁻¹ cm⁻¹. Moreover, in data set [2], the “ε Molar Absorptivity at 365 nm” value was found to be 180 M⁻¹ cm⁻¹. Also, the “Neuron response amplitude, percent of maximum amplitude” value in data set [3] was “less than 20%”.

On to `O=C(O)CC[C@H](NC(=O)OCc1cc(=O)oc2cc(O)c(Br)cc12)C(=O)O` [Compound 7, N-(6-Bromo-7-hydroxycoumarin-4-yl)methoxycarbonyl glutamate], for which, in data set [1], the “Qu1 Quantum efficiency for uncaging with one-photon excitation at 365 nm” value amounted to 0.019; the “εQu1 One-photon action cross section (product of molar absorptivity and photolysis quantum yield) at 365 nm” value was 329 M⁻¹ cm⁻¹. Moreover, in data set [2], the “Qf1 Quantum efficiency for fluorescence with one-photon excitation” value is reported as 0.38, the λem was 474 nm and the “ε Molar Absorptivity at 365 nm” value was 17,300 M^−1cm^−1. Moreover, in data set [2] (400 nm), the “ε Molar Absorptivity at 400 nm” value is recorded as 5,400 M^−1cm^−1. In data set [2] (pH 7.2), the “λmax Wavelength of peak absorbance” value amounted to 368 nm. For the same molecule, the “ε Molar absorptivity at absorbance peak” value in data set [2] (pH 7.2, at absorbance peak) was 17,470 M^−1cm^−1. Also, the “Response to laser scans after application of caged compound” value in data set [4] (Ti:sapphire laser raster-scanned across cell bodies and dendrites) is recorded as “scans evoked inward currents”. Further, the “Entry into the cell” value in data set [4] (photolysis map of neuron) is “did not enter the cell”. In addition, the “Change in holding current on application of caged compound (intrinsic agonist activity)” value in data set [4] (whole-cell recordings, 15 cells, before photolysis) is “did not cause detectable changes in holding current”. Also, in data set [5] (740 nm), the “δu (740 nm) uncaging action cross-section for two-photon excitation” value is on record as 0.98 ± 10^−50 cm^4s/photon. Also, the “δu (800 nm) uncaging action cross-section for two-photon excitation” value in data set [5] (800 nm) is 0.37 ± 10^−50 cm^4s/photon. Also, the “δf fluorescence action cross-section for two-photon excitation” value in data set [6] is listed as 2.2* 10^−50 cm^4s/photon. Further, the “Neuron response amplitude, percent of maximum amplitude” value in data set [3] is 80%. Also, in data set [7], the “Lifetime of triplet state through which solvolysis occurs” value is “about 1 μs”.
